US20190151315A1, “Drug For Preventing Or Treating Lactic Acidosis” (KEIO UNIVERSITY, priority 2016, published 2019)

Assays:
Format in all cases: in vivo, mouse (C57BL/6)
MALA model mice = assay: Survival analysis in metformin-associated lactic acidosis (MALA) model mice (Test Example 1); conditions: for survival rate as compared to vehicle alone: 30 mg/kg oral
From the text: (§1) All mice used in Examples were 7- to 13-week-old wild-type C57BL/6 male mice obtained from CLEA Japan, Inc. The mice were fed ad libitum on a 12-hour light/12-hour dark cycle in a specific pathogen-free facility.
(§2) In statistical analysis in Examples, power calculation for determining a sample size was not performed. Mice that died of lactic acidosis before treatment with a vehicle or Compound A were excluded from mice to be analyzed. For a comparison of normally distributed data between groups, analysis was performed using unpaired Student's t-test. A difference in survival rate was analyzed by log-rank (Mantel-Cox) test through use of GraphPad Prism software.
In the morning and evening of day 1, and the morning of day 2, 0.25 mg/g body weight of metformin dissolved in distilled water was orally administered to 8-week-old wild-type C57BL/6 male mice to produce MALA model mice. Immediately after the metformin administration to the model mice on day 2, a vehicle (0.5% methyl cellulose; 64625; Sigma-Aldrich) or 30 mg/kg body weight of Compound A (produced in Example 1) was orally administered. After 4 hours from the oral administration, the model mice were administered with 0.4 mg/g body weight of lactic acid dissolved in 0.9% NaCl by intraperitoneal injection. Kaplan-Meier survival analysis was performed for those mice.

[1] = tested on: MALA-complicated CKD model mice; assay: Survival analysis in MALA-complicated chronic kidney disease (CKD) model mice, Compound A (Test Example 2); conditions: for survival rate as compared to vehicle alone: 10 mg/kg oral
From the text: as §1, §2
(§3) 7-Week-old wild-type C57BL/6 male mice were fed ad libitum with a standard or 0.2% adenine feed for 6 weeks. The population fed with the 0.2% adenine feed was used as CKD model mice.
(§4) Further, the CKD model mice were administered with 0.5 mg/g body weight of metformin on day 1 to produce a MALA-complicated CKD mouse model. After 4 hours from the metformin administration, a whole blood sample (5 μl) was collected from the tail vein, and a blood lactate level was measured using Lactate Pro Test Meter and Lactate Pro Test Strip (Cycle Classic Imports). […] Kaplan-Meier survival analysis was performed for those mice.

[2] = tested on: MALA-complicated CKD model mice; assay: Survival analysis in MALA-complicated chronic kidney disease (CKD) model mice, Compound B (Test Example 3); conditions: for survival rate as compared to vehicle alone: 30 mg/kg oral
From the text: as §1, §2, §3, §4

SMILES: Cc1nc(CC2CCN(c3ccc(-c4ccc(CO)cc4)cc3)CC2)nc(C(=O)NCC(=O)O)c1O [Compound A, ({[5-hydroxy-2-({1-[4′-(hydroxymethyl)biphenyl-4-yl]piperidin-4-yl}methyl)-6-methylpyrimidin-4-yl]carbonyl}amino)acetic acid]
- survival rate as compared to vehicle alone (Kaplan-Meier, FIG. 1) (MALA model mice; 30 mg/kg body weight oral, single, metformin 0.25 mg/g x3, lactic acid 0.4 mg/g i.p. after 4 hours): significantly high survival rate
- survival rate as compared to vehicle alone (MALA model mice; after 24 hours): about 1.8 fold
- survival rate as compared to vehicle alone (MALA model mice; after 48 hours): about 2.8 fold
- survival rate as compared to vehicle alone (MALA model mice; after 72 hours): about 2.6 fold
- survival rate as compared to vehicle alone (MALA model mice; after 96 hours): about 2.4 fold
- survival rate as compared to vehicle alone (MALA model mice; after 120 hours): about 2.6 fold
- survival rate as compared to vehicle alone (Kaplan-Meier, FIG. 2) ([1]; 10 mg/kg body weight oral, single, mice with blood lactate more than 8 mM after metformin 0.5 mg/g): significantly high survival rate
- survival rate as compared to vehicle alone ([1]; after 24 hours): about 2.9 fold
- survival rate as compared to vehicle alone ([1]; after 48 hours): about 5.8 fold
- survival rate as compared to vehicle alone ([1]; after 72 hours): about 5.8 fold

SMILES: Cc1nc(CC2CCN(c3ccc(-c4ccc(C[C@H](C)O)cc4)cc3)CC2)nc(C(=O)NCC(=O)O)c1O [Compound B, [({5-hydroxy-2-[(1-{4′-[(2S)-2-hydroxypropyl]biphenyl-4-yl}piperidin-4-yl)methyl]-6-methylpyrimidin-4-yl}carbonyl)amino]acetic acid]
- survival rate as compared to vehicle alone (Kaplan-Meier, FIG. 3) ([2]; 30 mg/kg body weight oral, single, mice with blood lactate more than 8 mM after metformin 0.5 mg/g): significantly high survival rate
- survival rate as compared to vehicle alone ([2]; after 24 hours): about 1.7 fold
- survival rate as compared to vehicle alone ([2]; after 48 hours): about 2.0 fold
- survival rate as compared to vehicle alone ([2]; after 72 hours): about 2.0 fold
